From US12083172B2, “Vaccines against an oncogenic isoform of HER2 (ErbB2) and methods of using the same” (Duke University, priority 2014, dated 2024)
Entries after “also recorded” stand apart in the source; their conditions may differ. Read-outs that look alike come from different tables or passages of the source.

How the values were obtained:
[1] = test system: MM3MG cells stably expressing HER2d16; settings: MM3MG-HER2d16 s.c. in SCID-Beige mice; for effect of lapatinib on growth of HER2d16 tumors: lapatinib oral gavage 75 mg/kg, 5 times a week, from day 8, FIG. 7, 75 mg/kg
Method: (§1) MM3MG cells stably expressing the indicated genes were implanted subcutaneously into SCID-Beige mice (100,000 per mouse in PBS) at days 0. Mice were treated weekly with T-DM1 via tail vein injection (200 μg/mouse) beginning at day 10. Tumor growth was measured by calipers at the indicated days (N=5, bars represent SE).
as §1, with “lapatinib by oral gavage (75 mg/kg/5 days week)” for “T-DM1 via tail vein injection (200 μg/mouse) beginning”, “8.” for “10.”
(§2) Experiments using BALB/c, and SCID-Beige mice (obtained from Jackson Labs) were done in accordance with Duke Institutional Animal Care and Use Committee-approved protocols. For tumor vaccine experiments, Human HER2-transgenic mice (kindly provided by Dr. Wei-Zen Wei, Wayne State University, Detroit, MI^4) were crossed with BALB/c mice (Jackson Labs) to permit implantation of MM3MG-HER2d16 tumors and genotyped by PCR as previously described^5. In immnodeficient animals, stable cells were injected s.c. into the flank of SCID-beige mice (at indicated cells/animal) and measured as indicated. Tumor measurements were made using calipers and volumes calculated using the formula [v=width×width×(length/2)] whereas statistical differences were calculated using a mixed effects regression model using autoregressive covariance. In treatment experiments, T-DM1 was weekly delivered via tail vein (200 μg/mouse) while Lapatinib was given by oral gavage (5 times a week, 75 mg/kg).

HER2-WT MM3MG = settings: MM3MG-HER2-WT s.c. in SCID-Beige mice; T-DM1 weekly via tail vein, 200 μg/mouse, from day 10; FIG. 6
Method: as §1, §2

CS(=O)(=O)CCNCc1ccc(-c2ccc3ncnc(Nc4ccc(OCc5cccc(F)c5)c(Cl)c4)c3c2)o1 [Lapatinib]
effect of lapatinib on growth of HER2d16 tumors [1]: only had a minor effect
effect of lapatinib on growth of HER2d16 tumors ([1]; listed as lapatinib): resistant

Trastuzumab-DM1 [T-DM1]
effect of T-DM1 on growth of HER2-WT MM3MG tumors (HER2-WT MM3MG): significantly suppressed
effect of T-DM1 on growth of HER2d16 tumors ([1]; T-DM1 weekly via tail vein, 200 μg/mouse, from day 10, FIG. 6): more resistant; also recorded: only weakly impacted
